Measurements: PubChem BioAssay AID288 (DTP/NCI, 2004)
Several values for one entry are separate records, joined by “and”; a condition that tells them apart may be missing. Equal entries are not always repeated. Records with an inconclusive call do not appear. Numbered stars: 1 amine (or outer) side, 2 acyl side, 3 side chain; on linkers, the order of the positions; unused ones are H or OH. Bridge positions count the residues as written; N and C are the ends. Square brackets hold non-standard residues; d marks the D form. Peptide text beside a SMILES is read from it. I, II: the chains in the order shown. * marks the point of attachment. ξ: configuration not given here. Quinaldoyl(3-OH,6-OMe) = COc1ccc2nc(C(=O)*)c(O)cc2c1; X2 = CC(=O)OC1CC=NN([*:1])C1C(=O)[*:2]; ξNMeVal(3-OH) = CNC(C(=O)O)C(C)(C)O; X3 = O=C(C1CCCNN1[*:1])[*:2]; Sar = CNCC(=O)O

System: BDF1 mice, M5076 sarcoma s.c., survival/tumor T/C
Test: NCI In Vivo Anticancer Drug Screen. Data for tumor model Sarcoma M5076 (subcutaneous) in B6D2F1 (BDF1) mice
Protocol: The antitumor activity of compounds was measured in mice bearing transplantable tumors. Survival or tumor size were measured and the results are expressed as the measurement made in the treated group (T) divided by the measurement made in the vehicle treated control group (C). The tumor model used in this assay is Sarcoma M5076 (subcutaneous) in B6D2F1 (BDF1) mice

Q: Which results are given for `O=CC(NC(=O)N(CCCl)N=O)C(O)C(O)C(O)CO` (configuration not stated)?
A: T/C (endpoint: mean tumor weight, dose: 0.75 mg/kg/injection, schedule: Q02DX011 (ip), vehicle: saline, higher = larger tumour): 100 % of control; T/C (endpoint: mean tumor weight, dose: 1.5 mg/kg/injection, schedule: Q02DX011 (ip), vehicle: saline, higher = larger tumour): 33 % of control; T/C (endpoint: mean tumor weight, dose: 3.0 mg/kg/injection, schedule: Q02DX011 (ip), vehicle: saline, higher = larger tumour): 6 % of control; T/C (endpoint: median survival time, dose: 4.32 mg/kg/injection, schedule: Q04DX003 (ip), vehicle: saline, higher = longer survival): 182 % of control; T/C (endpoint: median survival time, dose: 6.17 mg/kg/injection, schedule: Q04DX003 (ip), vehicle: saline, higher = longer survival): 152 % of control and 153 % of control; T/C (endpoint: median survival time, dose: 6.86 mg/kg/injection, schedule: Q01DX001 (ip), vehicle: saline, higher = longer survival): 109 % of control; T/C (endpoint: median survival time, dose: 8.82 mg/kg/injection, schedule: Q04DX003 (ip), vehicle: saline, higher = longer survival): 179 % of control and 181 % of control; T/C (endpoint: median survival time, dose: 9.8 mg/kg/injection, schedule: Q01DX001 (ip), vehicle: saline, higher = longer survival): 111 % of control and 113 % of control; T/C (endpoint: median survival time, dose: 12.6 mg/kg/injection, schedule: Q04DX003 (ip), vehicle: saline, higher = longer survival): 186 % of control and 188 % of control; T/C (endpoint: median survival time, dose: 18.0 mg/kg/injection, schedule: Q04DX003 (ip), vehicle: saline, higher = longer survival): 205 % of control; T/C (endpoint: median survival time, dose: 20.0 mg/kg/injection, schedule: Q01DX001 (ip), vehicle: saline, higher = longer survival): 155 % of control and 156 % of control; T/C (endpoint: median tumor weight (est.), dose: 0.75 mg/kg/injection, schedule: Q02DX011 (ip), vehicle: saline, higher = larger tumour): 118 % of control; T/C (endpoint: median tumor weight (est.), dose: 1.5 mg/kg/injection, schedule: Q02DX011 (ip), vehicle: saline, higher = larger tumour): 5 % of control; T/C (endpoint: median tumor weight (est.), dose: 3.0 mg/kg/injection, schedule: Q02DX011 (ip), vehicle: saline, higher = larger tumour): 4 % of control

Q: For `CN(C)S(=O)(=O)c1ccc(CCCCc2ccc(N3C(N)=NC(N)=NC3(C)C)cc2Cl)c(Cl)c1`, which T/C (endpoint: median survival time, dose: 38.0 mg/kg/injection, schedule: Q01DX009 (ip), vehicle: saline with Tween-80, higher = longer survival) is on record?
A: The T/C was 100 % of control.

Q: With `COc1ccc2nc(C(=O)NC3COC(=O)C(C(C)(C)O)N(C)C(=O)CN(C)C(=O)CNC(=O)C4CCCNN4C(=O)C(NC(=O)c4nc5ccc(OC)cc5cc4O)COC(=O)C(C(C)(C)O)N(C)C(=O)CN(C)C(=O)CNC(=O)C4C(OC(C)=O)CC=NN4C3=O)c(O)cc2c1` (configuration not stated) (I: {Quinaldoyl(3-OH,6-OMe)}-S[X2]G[Sar][ξNMeVal(3-OH)] / II: {Quinaldoyl(3-OH,6-OMe)}-S[X3]G[Sar][ξNMeVal(3-OH)]; ester I:1-II:C, I:C-II:1; configuration not given here) as the compound, how does the T/C (endpoint: median survival time, dose: 5.0 micrograms/kg/injection, schedule: Q01DX009 (ip), vehicle: Klucel (hydroxypropylcellulose) (HPC), higher = longer survival) read?
A: Its T/C is 97 % of control.

Q: And the T/C (endpoint: median survival time, dose: 10.0 micrograms/kg/injection, schedule: Q01DX009 (ip), vehicle: Klucel (hydroxypropylcellulose) (HPC), higher = longer survival)?
A: The T/C was 86 % of control.

Q: What about the T/C (endpoint: median survival time, dose: 20.0 micrograms/kg/injection, schedule: Q01DX009 (ip), vehicle: Klucel (hydroxypropylcellulose) (HPC), higher = longer survival) of the same compound?
A: Its T/C is 95 % of control.

Q: What about the T/C (endpoint: median survival time, dose: 40.0 micrograms/kg/injection, schedule: Q01DX009 (ip), vehicle: Klucel (hydroxypropylcellulose) (HPC), higher = longer survival) of the same compound?
A: Its T/C is 94 % of control.

Q: And the T/C (endpoint: median tumor weight (est.), dose: 5.0 micrograms/kg/injection, schedule: Q01DX009 (ip), vehicle: DMSO, higher = larger tumour)?
A: Its T/C is 90 % of control.

Q: And the T/C (endpoint: median tumor weight (est.), dose: 10.0 micrograms/kg/injection, schedule: Q01DX009 (ip), vehicle: DMSO, higher = larger tumour)?
A: The T/C was 107 % of control.

Q: What about the T/C (endpoint: median tumor weight (est.), dose: 20.0 micrograms/kg/injection, schedule: Q01DX009 (ip), vehicle: DMSO, higher = larger tumour) of the same compound?
A: The T/C was 117 % of control.
